Experimental data as given in ChEMBL document CHEMBL2429815, “Synthesis of 5-benzyl-4-aryl-octahydro-1H-benzo[b][1,5]diazepin-2-ones as potent antidepressant and antimicrobial agents” (Med Chem Res, 2013).

Columns and labels:
Escherichia coli = assay: Antibacterial activity against Escherichia coli ATCC 35218 assessed as growth inhibition at 10 ug/ml by disc diffusion method; type: functional; details: read-out: IZ
Rattus norvegicus [1] = assay: Antidepressant activity in Albino rat assessed as reduction in immobility duration at 20 mg/kg, ip measured during 5 mins by forced swim test relative to control; type: functional; design: scale not given: the % may be the effect or the level left; details: route intraperitoneal
Staphylococcus aureus = assay: Antibacterial activity against Staphylococcus aureus ATCC 6538 assessed as growth inhibition at 10 ug/ml by disc diffusion method; type: functional; details: read-out: IZ
Pseudomonas aeruginosa = assay: Antibacterial activity against Pseudomonas aeruginosa ATCC 9027 assessed as growth inhibition at 10 ug/ml by disc diffusion method; type: functional; details: read-out: IZ
Bacillus subtilis = assay: Antibacterial activity against Bacillus subtilis ATCC […] assessed as growth inhibition at 10 ug/ml by disc diffusion method; type: functional; details: read-out: IZ
Rattus norvegicus [2] = assay: Neurotoxicity in rat assessed as minimal motor impairment by measuring coordination time at 100 mg/kg, ip 30 mins prior to testing by rotarod method; type: toxicity, organism-based; design: dose 100 mg/kg, route intraperitoneal; details: in vivo, 0.5 h

SMILES | zone of inhibition at 10 µg/mL (Escherichia coli) [mm] | Activity (Rattus norvegicus [1]) [%] | zone of inhibition at 10 µg/mL (Staphylococcus aureus) [mm] | zone of inhibition at 10 µg/mL (Pseudomonas aeruginosa) [mm] | zone of inhibition at 10 µg/mL (Bacillus subtilis) [mm] | Time (Rattus norvegicus [2]) [s]
O=C1CC(c2ccccc2Br)N(Cc2ccccc2)C2CCCCC2N1 (configuration not stated) | 6 | 71.1 | 15 | 5 | 6 | 91.33
O=C1CC(c2ccc([N+](=O)[O-])cc2)N(Cc2ccccc2)C2CCCCC2N1 (configuration not stated) | 4 | 89.44 | 15 | 9 | 6 | 93.5
COc1ccc(C2CC(=O)NC3CCCCC3N2Cc2ccccc2)cc1 (configuration not stated) | 5 | 86.4 | 12 | 7 | 3 | 97.83
O=C1CC(c2cccc([N+](=O)[O-])c2)N(Cc2ccccc2)C2CCCCC2N1 (configuration not stated) | 4 | 85.82 | 10 | 7 | 3 | 92.34
O=C1CC(c2coc3ccccc3c2=O)N(Cc2ccccc2)C2CCCCC2N1 (configuration not stated) | 5 | 83.56 | 8 | 5 | 4 | 97.17
O=C1CC(c2cc3ccccc3nc2Cl)N(Cc2ccccc2)C2CCCCC2N1 (configuration not stated) | 6 | 85.27 | 13 | 6 | 6 | 98.33
O=C(O)c1cn(C2CC2)c2cc(N3CCNCC3)c(F)cc2c1=O [CIPROFLOXACIN] | 9 | – | 18 | 12 | 9 | –
O=C1CC(c2ccc(Cl)cc2)N(Cc2ccccc2)C2CCCCC2N1 (configuration not stated) | 3 | 88.03 | 10 | 4 | 3 | 90.83
COc1ccc(C2CC(=O)NC3CCCCC3N2Cc2ccccc2)cc1OC (configuration not stated) | 8 | 89.03 | 7 | 5 | 7 | 96.5
O=C1CC(c2ccccc2Cl)N(Cc2ccccc2)C2CCCCC2N1 (configuration not stated) | 4 | 78.23 | 8 | 9 | 4 | 95.17
CN(C)CCCN1c2ccccc2CCc2ccc(Cl)cc21 [CLOMIPRAMINE] | – | 92.21 | – | – | – | 110.83
O=C1CC(c2ccc(Br)cc2)N(Cc2ccccc2)C2CCCCC2N1 (configuration not stated) | 5 | 85.82 | 10 | 8 | 5 | 93.67
O=C1CC(c2ccccc2)N(Cc2ccccc2)C2CCCCC2N1 (configuration not stated) | 5 | 81.56 | 9 | 6 | 6 | 100.33
